According to patent US20240226117A1, “TREATMENT OF CONGENITAL ADRENAL HYPOPLASIA” (ReveraGen BioPharma, Inc., priority 2021, published 2024):
Read-outs that look alike come from different tables or passages of the source. Blank lines part the entries; values can stand above or below the compound they belong to.

Legend:
[1] = tested on: DMD participants; details: cited from earlier work
[2] = biological target: T1, mineralocorticoid receptor (Homo sapiens, UniProt P08235); details: background statement; cited from earlier work
T1 sequence (P08235 1-984): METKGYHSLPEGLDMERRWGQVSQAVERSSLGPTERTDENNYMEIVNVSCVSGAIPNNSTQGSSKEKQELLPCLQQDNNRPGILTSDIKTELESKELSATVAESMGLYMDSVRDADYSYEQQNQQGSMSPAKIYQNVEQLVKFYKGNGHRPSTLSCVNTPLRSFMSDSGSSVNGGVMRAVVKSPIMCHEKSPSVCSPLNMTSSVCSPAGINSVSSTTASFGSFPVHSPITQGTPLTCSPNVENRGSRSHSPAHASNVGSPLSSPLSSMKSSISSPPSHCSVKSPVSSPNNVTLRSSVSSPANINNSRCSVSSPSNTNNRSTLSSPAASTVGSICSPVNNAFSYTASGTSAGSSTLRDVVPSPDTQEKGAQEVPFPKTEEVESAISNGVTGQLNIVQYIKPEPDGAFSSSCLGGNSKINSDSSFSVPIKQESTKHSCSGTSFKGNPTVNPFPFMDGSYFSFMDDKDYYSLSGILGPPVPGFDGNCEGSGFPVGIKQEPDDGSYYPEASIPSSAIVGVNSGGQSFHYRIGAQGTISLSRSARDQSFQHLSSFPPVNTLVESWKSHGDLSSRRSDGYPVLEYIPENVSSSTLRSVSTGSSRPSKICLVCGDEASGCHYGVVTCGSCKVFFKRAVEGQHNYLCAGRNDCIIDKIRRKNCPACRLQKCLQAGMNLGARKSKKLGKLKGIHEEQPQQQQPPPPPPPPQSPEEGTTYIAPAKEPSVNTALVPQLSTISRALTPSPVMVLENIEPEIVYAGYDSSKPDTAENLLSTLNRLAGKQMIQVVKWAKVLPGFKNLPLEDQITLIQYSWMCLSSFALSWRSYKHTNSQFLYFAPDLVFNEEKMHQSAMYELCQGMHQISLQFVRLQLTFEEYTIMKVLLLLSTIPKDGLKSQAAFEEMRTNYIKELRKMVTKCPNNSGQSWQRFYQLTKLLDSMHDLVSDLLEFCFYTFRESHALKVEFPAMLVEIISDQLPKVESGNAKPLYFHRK

[3] = tested on: DMD subjects; details: cited from earlier work
[4] = tested on: DMD participants; test: Prespecified safety evaluation: height percentile for age and BMI z-score; assay type: in vivo, human; details: for Mean BMI z-score, change from baseline (SD): 0.75 mg/kg/day
Experimental: As with the […] comparators, group-matching criteria were prespecified in the iSAP, and 2 independent statisticians carried out the participant matching. […] There was no corresponding 12-month assessment in vamorolone-treated participants. (Assessments of vamorolone-treated trial participants were 0, 3, 6, and 18 months). Standing height and weight were assessed at each study visit. Height z-score, body mass index (BMI: kg/m^2), and BMI z-score were calculated centrally. AE reporting was done per protocol in the vamorolone trials. The current study is the first to evaluate the longer-term tolerability, efficacy, and safety of vamorolone in DMD. […] Given the variable timing of dose escalations, it was prespecified that initial analyses of drug-related efficacy and safety would be limited to those participants who had 18 months of treatment with 2.0 mg/kg/day vamorolone or more (dose group C+dose group D: n=23). Outcomes for these participants were compared to a group-matched cohort from the […] over 18 months (corticosteroid-naïve, n=19: corticosteroid-treated, n=68). Participants were matched for age and treatment period (+1 month), matching criteria were prespecified in the statistical analysis plan. Two independent statisticians carried out the matching. […] Participants in the corticosteroid-treated […] group were treated for at least 18 months, but the total duration, dose, and regimens varied. Statistical analyses were done on paired longitudinal outcome data using an analysis of covariance (ANCOVA) approach with change from baseline (VBP15-002) to month 18 (midpoint of VBP15-LTE). Baseline response and age were included as covariates. For the vamorolone-treated participants, age was calculated as (date of informed consent minus birthdate)/365.25. For the DNHS participants, age was calculated as (date of baseline visit used minus birthdate)/365.25. The baseline visit for a DNHS participant was the first visit. […] Timed function tests were analyzed as velocity scores to limit the impact of participants who could not perform the test (velocity=0). Velocity measures are variance-stabilizing transformations, suppressing extreme raw outliers from raw values in seconds; these help with distributional assumptions of the statistical models/tests used. Raw data (seconds) are also reported. Velocity scores for […] (event/second), TTRW (meters/second), and […] (event/second) were inputted as 0 at the first response missing due to inability to perform the test. All other data were observed values only, without imputation. No adjustments for multiplicity on inferential statistics were specified in the iSAP.

[5] = tested on: ambulant boys with DMD; test: VBP15-004 growth (height Z score); assay type: in vivo, human; details: prednisone 0.75 mg/kg/day
[6] = tested on: ambulant boys with DMD; details: male, human, in vivo, 24 weeks
[7] = tested on: ambulant boys with DMD; test: VBP15-004 adverse events and behavior AESIs; details: PDN 0.75 mg, N = 31, 24 weeks
[8] = CINRG DNHS, deflazacort n = 94, prednisone n = 80
[9] = Griggs et al. 2016, 12-month trial, 0.9 mg/kg/day deflazacort (n = 68), 0.75 mg/kg/day prednisone (n = 63)
[10] = CINRG prednisone trial, daily 0.75 mg/kg/day, 12 months
[11] = vamorolone 18-month treatment versus prednisone trial 12-month treatment, ANCOVA

Compound: CC(=O)OCC(=O)[C@@]12N=C(C)O[C@@H]1C[C@H]1[C@@H]3CCC4=CC(=O)C=C[C@]4(C)[C@H]3[C@@H](O)C[C@@]12C [Deflazacort, deflazacort]
Incidence of physician-reported Cushingoid [1, 8]: 72%
Incidence of physician-reported behavior change [1, 8]: 33%
Incidence of physician-reported weight gain [1, 8]: 63%
Incidence of physician-reported Cushingoid [1, 9]: 60.3%
Incidence of physician-reported behavior change [1, 9]: 9%
Incidence of physician-reported hypertrichosis/hirsutism [1, 9]: 35%
Incidence of physician-reported weight gain [1, 9]: 27.9%
activity at the mineralocorticoid receptor [2]: agonists
LS Mean change in height percentiles for age ([3]; DMD children treated with deflazacort, N = 40, 12 months treatment): −11.4
change in height percentile over a 12-month treatment period ([3]; Griggs et al. 2016, DMD): −11.43 percentile

change in height Z scores from baseline to Week 24 [5]: growth deceleration
clinically relevant psychiatric events, subjects [6]: 19.4%
moderate/severe behavior problems, subjects [6]: 22.6%
Compound: C[C@]12C=CC(=O)C=C1CC[C@@H]1[C@@H]2C(=O)C[C@@]2(C)[C@H]1CC[C@]2(O)C(=O)CO [Prednisone, prednisone, reference compound]
Mean BMI z-score, value (SD) at 12 months of treatment [4, 10]: 1.068 (1.05)
Mean height percentile for age, change from baseline (SD) [4, 10]: −3.76 (10.44)
Mean height percentile for age, value (SD) at 12 months of treatment [4, 10]: 26.14 (24.21)
Mean BMI z-score, change from baseline (SD) [4, 10]: 0.459 (0.407)
Mean BMI z-score, change from baseline (SD) ([4]; CINRG prednisone trial, daily 0.75 mg/kg/day, 12 months, listed as prednisone): 0.46
Mean BMI z-score, LS mean difference (SE) [4, 11]: 0.066 (0.193)
Mean height percentile for age, LS mean difference (SE) [4, 11]: 10.37 (3.86)
incidence of behavior problems [6]: 32.3%
activity at the mineralocorticoid receptor [2]: agonists
Any Behavior AESI, moderate/severe: F (AE count) [7]: 8
